ChEMBL document CHEMBL2040817, “Fragment-based discovery of hydroxy-indazole-carboxamides as novel small molecule inhibitors of Hsp90” (Bioorg Med Chem Lett, 2012)

Tests used:
[1] = molecular target: T1, Heat shock protein HSP 90-beta (Homo sapiens, UniProt P08238); assay: Displacement of [3H]17AAG from human recombinant Hsp90 after 30 mins by beta scintillation counting
A2780 = assay: Antiproliferative activity against human A2780 cells after 72 hrs by alamar blue assay; type: functional, cell-based; conditions: A2780, 72 h
COLO 205 = assay: Antiproliferative activity against human COLO205 cells after 72 hrs by alamar blue assay; type: functional, cell-based; conditions: COLO 205, 72 h
PC-3 = assay: Antiproliferative activity against human PC3 cells after 72 hrs by alamar blue assay; type: functional, cell-based; conditions: PC-3, 72 h
MCF7 = assay: Antiproliferative activity against human MCF7 cells after 72 hrs by alamar blue assay; type: functional, cell-based; conditions: MCF7, 72 h
[2] = molecular target: T1, Heat shock protein HSP 90-beta; assay: Inhibition of Hsp90 in human A2780 cells assessed as Hsp70 upregulation after 24 hrs by immunostaining method; type: cell-based

T1 sequence (P08238 whole entry): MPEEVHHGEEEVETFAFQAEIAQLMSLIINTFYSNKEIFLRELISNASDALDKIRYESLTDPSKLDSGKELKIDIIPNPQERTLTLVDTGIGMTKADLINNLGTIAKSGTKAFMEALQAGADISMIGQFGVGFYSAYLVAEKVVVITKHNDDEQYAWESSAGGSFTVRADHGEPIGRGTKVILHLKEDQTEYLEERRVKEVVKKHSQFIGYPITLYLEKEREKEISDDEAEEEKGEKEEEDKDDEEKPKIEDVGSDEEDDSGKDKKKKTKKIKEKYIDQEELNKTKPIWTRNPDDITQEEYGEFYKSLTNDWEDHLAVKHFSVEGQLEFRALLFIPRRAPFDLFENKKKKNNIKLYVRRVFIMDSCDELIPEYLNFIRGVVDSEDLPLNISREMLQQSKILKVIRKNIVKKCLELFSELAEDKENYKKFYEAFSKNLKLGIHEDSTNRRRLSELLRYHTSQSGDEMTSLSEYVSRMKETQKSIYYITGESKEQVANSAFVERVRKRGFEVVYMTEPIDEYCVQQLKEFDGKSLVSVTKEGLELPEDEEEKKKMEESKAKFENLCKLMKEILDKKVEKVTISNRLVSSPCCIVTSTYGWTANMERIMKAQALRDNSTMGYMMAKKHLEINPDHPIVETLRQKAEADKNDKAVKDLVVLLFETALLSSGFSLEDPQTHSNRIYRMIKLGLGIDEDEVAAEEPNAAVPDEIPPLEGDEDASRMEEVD

| IC50 [1] | IC50 (A2780) | SMILES | further results |
| --- | --- | --- | --- |
| 0.37 µM | 0.44 µM | Cc1cccc(Cc2n[nH]c3cc(O)c(C(=O)N(C)Cc4cccc(F)c4)cc23)c1 | – |
| 0.17 µM | 0.93 µM | Cc1cccc(Cc2n[nH]c3cc(O)c(C(=O)N(C)Cc4ccc(Cl)c(F)c4)cc23)c1 | – |
| 0.35 µM | 1.6 µM | Cc1cccc(Cc2n[nH]c3cc(O)c(C(=O)N(C)Cc4ccc(NS(C)(=O)=O)cc4)cc23)c1 | – |
| 1.1 µM | 2.8 µM | CN(Cc1ccc(Br)cc1)C(=O)c1cc2c(Cc3ccccc3)n[nH]c2cc1O | – |
| 0.63 µM | 6.9 µM | Cc1ccc(CN(C)C(=O)c2cc3c(Cc4ccccc4)n[nH]c3cc2O)cc1 | – |
| 0.39 µM | 9.4 µM | CCc1ccc(CN(C)C(=O)c2cc3c(Cc4ccccc4)n[nH]c3cc2O)cc1 | – |
| 2.6 µM | – | CN(Cc1ccccc1)C(=O)c1cc2c(Cc3ccccc3Cl)n[nH]c2cc1O | – |
| 1.3 µM | 1.7 µM | CN(Cc1ccccc1)C(=O)c1cc2c(Cc3cccc(F)c3)n[nH]c2cc1O | – |
| 2.5 µM | > 10 µM | CCc1ccc(Cc2n[nH]c3cc(O)c(C(=O)N(C)Cc4ccccc4)cc23)cc1 | – |
| 0.59 µM | 0.13 µM | CN(Cc1ccccc1Br)C(=O)c1cc2c(Cc3cccc(Cl)c3)n[nH]c2cc1O | – |
| 21 µM | – | Nc1nc(Cl)cc(Cc2ccc(Cl)cc2)n1 | – |
| 61 µM | – | NC(=O)c1cc2c(Cc3ccccc3)n[nH]c2cc1O | – |
| 1.9 µM | > 10 µM | CCCN(C)C(=O)c1cc2c(Cc3ccccc3)n[nH]c2cc1O | – |
| 1.8 µM | 7.6 µM | CCCCN(C)C(=O)c1cc2c(Cc3ccccc3)n[nH]c2cc1O | – |
| 0.66 µM | 0.98 µM | CN(Cc1ccccc1)C(=O)c1cc2c(Cc3ccccc3)n[nH]c2cc1O | – |
| 0.23 µM | 4.6 µM | CN(Cc1ccccc1)C(=O)c1cc2c(CCc3ccccc3)n[nH]c2cc1O | – |
| 1.1 µM | 1.1 µM | CN(Cc1ccccc1Cl)C(=O)c1cc2c(Cc3ccccc3)n[nH]c2cc1O | – |
| 0.61 µM | 1.2 µM | CN(Cc1ccccc1Br)C(=O)c1cc2c(Cc3ccccc3)n[nH]c2cc1O | – |
| 0.74 µM | 4.4 µM | Cc1ccccc1CN(C)C(=O)c1cc2c(Cc3ccccc3)n[nH]c2cc1O | – |
| 1.5 µM | 5.3 µM | CN(Cc1cccc(Cl)c1)C(=O)c1cc2c(Cc3ccccc3)n[nH]c2cc1O | – |
| 3.4 µM | – | CN(Cc1cccc(C(F)(F)F)c1)C(=O)c1cc2c(Cc3ccccc3)n[nH]c2cc1O | – |

Second part, the compound before the results:

| SMILES | IC50 [1] | IC50 (A2780) | further results |
| --- | --- | --- | --- |
| COc1ccc(CN(C)C(=O)c2cc3c(Cc4cccc(C)c4)n[nH]c3cc2O)cc1OC | 0.58 µM | 3.7 µM | – |
| COc1cc2[nH]nc(Cc3cccc(C)c3)c2cc1C(=O)N(C)Cc1ccccc1 | > 20 µM | – | – |
| Cc1cccc(Cc2n[nH]c3cc(O)c(C(=O)N(C)Cc4ccccc4Br)cc23)c1 | 0.78 µM | 0.31 µM | – |
| Cc1cccc(Cc2n[nH]c3cc(O)c(C(=O)N(C)Cc4ccc(F)cc4)cc23)c1 | 0.58 µM | 0.59 µM | – |
| COc1ccc(CN(C)C(=O)c2cc3c(Cc4cccc(C)c4)n[nH]c3cc2O)cc1 | 0.46 µM | 0.54 µM | – |
| COc1cc(CN(C)C(=O)c2cc3c(Cc4cccc(C)c4)n[nH]c3cc2O)ccc1Cl | 0.68 µM | 1.6 µM | – |
| Cc1cccc(Cc2n[nH]c3cc(O)c(C(=O)N(C)Cc4ccc(F)c(F)c4)cc23)c1 | 0.5 µM | 0.53 µM | – |
| Cc1cccc(Cc2n[nH]c3cc(O)c(C(=O)N(C)Cc4cccc(NS(C)(=O)=O)c4)cc23)c1 | 0.2 µM | 4 µM | – |
| Cc1cccc(Cc2n[nH]c3cc(O)c(C(=O)N(C)Cc4ccc(CNS(C)(=O)=O)cc4)cc23)c1 | 0.15 µM | 0.71 µM | IC50 (COLO 205): 3.7 µM; IC50 (PC-3): > 10 µM; IC50 (MCF7): 4.7 µM; IC50 [2]: 1.1 µM |
| CN(Cc1ccc(F)cc1)C(=O)c1cc2c(Cc3ccccc3)n[nH]c2cc1O | 1.1 µM | 4.1 µM | – |
| CN(Cc1ccc(Cl)cc1)C(=O)c1cc2c(Cc3ccccc3)n[nH]c2cc1O | 0.33 µM | 2.6 µM | – |
| CCOc1ccc(CN(C)C(=O)c2cc3c(Cc4ccccc4)n[nH]c3cc2O)cc1 | 0.76 µM | 3.2 µM | – |
| COc1cccc(CN(C)C(=O)c2cc3c(Cc4ccccc4)n[nH]c3cc2O)c1OC | 0.47 µM | 4.8 µM | – |
| COc1cc(CN(C)C(=O)c2cc3c(Cc4ccccc4)n[nH]c3cc2O)ccc1Cl | 2.3 µM | 4.1 µM | – |
| CN(Cc1ccc(Cl)c(F)c1)C(=O)c1cc2c(Cc3ccccc3)n[nH]c2cc1O | 0.98 µM | > 10 µM | – |
| Cc1ccccc1Cc1n[nH]c2cc(O)c(C(=O)N(C)Cc3ccccc3)cc12 | 2.4 µM | – | – |
| CN(Cc1ccccc1)C(=O)c1cc2c(Cc3cccc(Cl)c3)n[nH]c2cc1O | 0.4 µM | 0.41 µM | – |
| Cc1cccc(Cc2n[nH]c3cc(O)c(C(=O)NCc4ccccc4)cc23)c1 | 1.5 µM | > 10 µM | – |
| Cc1cccc(Cc2n[nH]c3cc(O)c(C(=O)N(C)Cc4ccccc4)cc23)c1 | – | 0.49 µM | – |
| CCN(Cc1ccccc1)C(=O)c1cc2c(Cc3cccc(C)c3)n[nH]c2cc1O | 3 µM | – | – |

| SMILES | IC50 [1] | IC50 (A2780) | further results |
| --- | --- | --- | --- |
| COc1cccc(Cc2n[nH]c3cc(O)c(C(=O)N(C)Cc4ccccc4)cc23)c1 | 1.4 µM | – | – |
| CCc1cccc(Cc2n[nH]c3cc(O)c(C(=O)N(C)Cc4ccccc4)cc23)c1 | 1.3 µM | – | – |
| CN(Cc1ccccc1)C(=O)c1cc2c(Cc3ccc(Cl)cc3)n[nH]c2cc1O | 5.7 µM | – | – |
| Cc1ccc(Cc2n[nH]c3cc(O)c(C(=O)N(C)Cc4ccccc4)cc23)cc1 | 1.3 µM | > 10 µM | – |
| CN(Cc1cccc(F)c1)C(=O)c1cc2c(Cc3cccc(Cl)c3)n[nH]c2cc1O | 0.71 µM | 0.44 µM | – |
| CN(Cc1ccc(F)cc1)C(=O)c1cc2c(Cc3cccc(Cl)c3)n[nH]c2cc1O | 0.8 µM | 0.41 µM | – |
| COc1ccc(CN(C)C(=O)c2cc3c(Cc4cccc(Cl)c4)n[nH]c3cc2O)cc1 | 0.8 µM | 0.39 µM | – |
| COc1ccc(CN(C)C(=O)c2cc3c(Cc4cccc(Cl)c4)n[nH]c3cc2O)cc1OC | 0.73 µM | 2.4 µM | – |
| CN(Cc1cccc(NS(C)(=O)=O)c1)C(=O)c1cc2c(Cc3cccc(Cl)c3)n[nH]c2cc1O | 0.41 µM | 3.2 µM | – |
| CN(Cc1ccc(CNS(C)(=O)=O)cc1)C(=O)c1cc2c(Cc3cccc(Cl)c3)n[nH]c2cc1O | 0.06 µM | 0.57 µM | IC50 (COLO 205): 9.5 µM; IC50 (PC-3): 4.3 µM; IC50 (MCF7): 3.5 µM; IC50 [2]: 1 µM |
| Oc1ccc2c(C3CCCC3)n[nH]c2c1 | 87 µM | – | – |
| Cc1ccc(-c2nc(N)nc3ccc(Cl)cc23)cc1 | 0.9 µM | – | – |
| COCCN(C)C(=O)c1cc2c(Cc3ccccc3)n[nH]c2cc1O | 4 µM | – | – |
| CN(C(=O)c1cc2c(Cc3ccccc3)n[nH]c2cc1O)c1ccco1 | 0.61 µM | 2.5 µM | – |
| CN(Cc1ccccc1F)C(=O)c1cc2c(Cc3ccccc3)n[nH]c2cc1O | 0.9 µM | 1.5 µM | – |
| COc1ccccc1CN(C)C(=O)c1cc2c(Cc3ccccc3)n[nH]c2cc1O | 1.7 µM | 5.4 µM | – |
| CN(Cc1cccc(F)c1)C(=O)c1cc2c(Cc3ccccc3)n[nH]c2cc1O | 0.57 µM | 5 µM | – |
| CN(Cc1cccc(Br)c1)C(=O)c1cc2c(Cc3ccccc3)n[nH]c2cc1O | 1.3 µM | 7.1 µM | – |
| Cc1cccc(CN(C)C(=O)c2cc3c(Cc4ccccc4)n[nH]c3cc2O)c1 | 3.6 µM | – | – |
| COc1cccc(CN(C)C(=O)c2cc3c(Cc4ccccc4)n[nH]c3cc2O)c1 | 0.98 µM | 3.8 µM | – |
